Laboratory results taken from paper PMC10285453 (Comprehensive Psychoneuroendocrinology, 2023).

How the values were obtained:
[1] = tested on: primary polyclonal rabbit anti-OXT IgG (Cayman Chemical Company OXT EIA, secondary monoclonal mouse anti-rabbit IgG); experiment: OXT EIA cross-reactivity, Cayman Chemical Company kit; assay type: binding
[2] = Reversed phase SPE of OXT from pure solution; assay type: physicochemical; conditions: 200 pg/ml pure OXT solution, 0.1% TFA-H2O, separate C-18 column elutions, Enzo Life Sciences EIA
[3] = tested on: primary polyclonal rabbit anti-OXT IgG (Enzo Life Sciences OXT EIA, secondary polyclonal goat anti-rabbit IgG); conditions: competitive EIA; published IC50; ref manufacturer (Enzo Life Sciences); cited from earlier work
[4] = tested on: primary polyclonal rabbit anti-OXT IgG (Cayman Chemical Company OXT EIA, secondary monoclonal mouse anti-rabbit IgG); conditions: competitive EIA; ref manufacturer (Cayman Chemical Company); cited from earlier work
[5] = same ultrafiltration columns, cited from earlier work

For Immunoglobulin G, the “cross-reactivity (IC50(OXT)/IC50(interfering protein))” value (“cross-reactivity” for short) [1] was < 0.01%.

With Immunoglobulin M the “cross-reactivity” value [1] was < 0.01%.

For Transferrin, the “cross-reactivity” value [1] was < 0.01%.

In the case of oxytocin [OXT], the “OXT recovered in the eluate, reversed phase SPE” value ([2]; 30–40% ACN range, CV for three columns 30.8–136.5%) is listed as 10.1–49.1%, the “total amount of OXT measured in all fractions (load, wash, eluate) as % of the original sample” value [2] is listed as 37.1–92.2% and the “IC50 of the Enzo Life Sciences OXT assay” value [3] is listed as 0.228 ng/mL. The “mean IC50 of the Cayman Chemical Company OXT assay” value [4] was 0.08 ng/mL, the “OXT recovery rate from plasma, ultrafiltration” value ([5]; plasma) was 91.8% and the “OXT recovery rate from saliva, ultrafiltration” value ([5]; saliva) was 68.4%.
